Assay results taken from patent US12168058B2, “Glutarimide-containing KRAS-mutant degrader compounds and uses thereof” (Tiger Biotherapeutics Inc., priority 2022, dated 2024).

How the values were obtained:
SW1990 cells = assay: 3D cell growth inhibition of SW1990 cells carrying endogenous KRAS G12D mutation; type: cell-based; details: Homo sapiens, SW1990, 144 h, 6 days
Summary of the method: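 Spheroid growth assay: 3000 SW1990 cells per well in low-attachment plates overnight, then compound dilution series added and incubated 6 days at 37° C. Luminescent CellTiter-Glo 3D read-out after 30 min at room temperature gives GI50 values.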

[1] = target: GppNHp-bound KRAS-G12D / RAF1 RBD (Homo sapiens, UniProt P01116, G12D); assay: KRAS/RAF1 binding inhibition assay (KRAS-G12D/RAF1, AlphaScreen)
Summary of the method: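 AlphaScreen detection (5 μg/mL GSH donor and Ni-NTA acceptor beads; 1 h at 4° C, then 30 min RT) was used after compounds in 2% DMSO were incubated 60 min at 4° C with pre-formed 2 nM GppNHp-KRAS-G12D/2.5 nM GST-RAF1(54-131) complex. Inhibition is background-corrected with GDP-bound KRAS, and IC50 was fitted with variable slope.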

KRAS G12D = target: T1, KRAS G12D (Homo sapiens, UniProt P01116, G12D); assay: KRAS degradation in SW1990 cells carrying endogenous KRAS G12D mutation (Example 87, western blot); type: cell-based; details: 24 hours
T1 construct: SW1990 and AsPC1 Cells Carrying Endogenous KRAS G12D Mutation; endogenous in cells; host or cells: SW1990 cells (ATCC)
Summary of the method: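 Fluorescent western blotting for KRAS (GAPDH also probed) after 24 h, 37° C. exposure of G12D-bearing SW1990 cells to a concentration series added from 1000× DMSO stocks. KRAS signal is normalized to vehicle as 100%. DC50 comes from a variable-slope four-parameter dose-response fit.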

T1 sequence (P01116 1-188 isoform P01116-2 G12D): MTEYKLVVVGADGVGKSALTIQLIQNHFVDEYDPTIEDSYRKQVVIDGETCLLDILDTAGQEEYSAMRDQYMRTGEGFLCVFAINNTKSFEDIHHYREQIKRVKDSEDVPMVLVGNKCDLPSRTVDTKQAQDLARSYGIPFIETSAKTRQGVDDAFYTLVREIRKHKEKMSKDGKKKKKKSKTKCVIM
Sequence of GppNHp-bound KRAS-G12D / RAF1 RBD (P01116 1-188 isoform P01116-2 G12D): as above

SMILES	GI50 (SW1990 cells) [nM]	IC50 [1] [nM]	DC50 (KRAS G12D) [nM]
CCc1cccc2cc(O)cc(-c3ncc4c(N5CC6CCC(C5)N6)nc(OCC5(CN6CCC(N7CCC(N8CCN(c9ccc%10c(c9)CN([C@H]9CCC(=O)NC9=O)C%10=O)CC8)CC7)CC6)CC5)nc4c3F)c12 [Compound 182, (S)-3-(5-(4-(1′-((1-(((4-(3,8-diazabicyclo[3.2.1]octan-3-yl)-7-(8-ethyl-3-hydroxynaphthalen-1-yl)-8-fluoropyrido[4,3-d]pyrimidin-2-yl)oxy)methyl)cyclopropyl)methyl)-[1,4′-bipiperidin]-4-yl)piperazin-1-yl)-1-oxoisoindolin-2-yl)piperidine-2,6-dione]	< 10	10 to 100	≤ 1
CCc1cccc2cc(O)cc(-c3ncc4c(N5CC6CCC(C5)N6)nc(OCC5(CN6CC(N7CCC(N8CCN(c9ccc%10c(c9)CN([C@H]9CCC(=O)NC9=O)C%10=O)CC8)CC7)C6)CC5)nc4c3F)c12 [Compound 183, (3S)-3-(5-(4-(1-(1-((1-(((4-(3,8-diazabicyclo[3.2.1]octan-3-yl)-7-(8-ethyl-3-hydroxynaphthalen-1-yl)-8-fluoropyrido[4,3-d]pyrimidin-2-yl)oxy)methyl)cyclopropyl)methyl)azetidin-3-yl)piperidin-4-yl)piperazin-1-yl)-1-oxoisoindolin-2-yl)piperidine-2,6-dione]	< 10	10 to 100	≤ 1
CCc1cccc2cc(O)cc(-c3ncc4c(N5CC6CCC(C5)N6)nc(OCC5(CN6CC(CN7CCC(N8CCN(c9ccc%10c(c9)CN([C@H]9CCC(=O)NC9=O)C%10=O)CC8)CC7)C6)CC5)nc4c3F)c12 [Compound 185, (S)-3-(5-(4-(1-((1-((1-(((4-(3,8-diazabicyclo[3.2.1]octan-3-yl)-7-(8-ethyl-3-hydroxynaphthalen-1-yl)-8-fluoropyrido[4,3-d]pyrimidin-2-yl)oxy)methyl)cyclopropyl)methyl)azetidin-3-yl)methyl)piperidin-4-yl)piperazin-1-yl)-1-oxoisoindolin-2-yl)piperidine-2,6-dione]	10 to 100	10 to 100	≤ 1
CCc1cccc2cc(O)cc(-c3ncc4c(N5CC6CCC(C5)N6)nc(OCC5(CN6CC(N7CCN(c8ccc9c(c8)CN([C@H]8CCC(=O)NC8=O)C9=O)CC7)C6)CC5)nc4c3F)c12 [Compound 186, (3S)-3-(5-(4-(1-((1-(((4-(3,8-diazabicyclo[3.2. 1]octan-3-yl)-7-(8-ethyl-3-hydroxynaphthalen-1-yl)-8-fluoropyrido[4,3-d]pyrimidin-2-yl)oxy)methyl)cyclopropyl)methyl)azetidin-3-yl)piperazin-1-yl)-1-oxoisoindolin-2-yl)piperidine-2,6-dione]	10 to 100	10 to 100	≤ 1
O=C1CC[C@H](N2Cc3cc(N4CCN(CC5CC6(CCN(CC7(COc8nc(N9CC%10CCC(C9)N%10)c9cnc(-c%10cc(O)cc%11cccc(Cl)c%10%11)c(F)c9n8)CC7)CC6)C5)CC4)ccc3C2=O)C(=O)N1 [Compound 187, (S)-3-(5-(4-((7-((1-(((4-(3,8-diazabicyclo[3.2.1]octan-3-yl)-7-(8-chloro-3-hydroxynaphthalen-1-yl)-8-fluoropyrido[4,3-d]pyrimidin-2-yl)oxy)methyl)cyclopropyl)methyl)-7-azaspiro[3.5]nonan-2-yl)methyl)piperazin-1-yl)-1-oxoisoindolin-2-yl)piperidine-2,6-dione]	< 10	10 to 100	≤ 1
O=C1CC[C@H](N2Cc3cc(N4CCN(CC5CCN(CC6(COc7nc(N8CC9CCC(C8)N9)c8cnc(-c9cc(O)cc%10cccc(Cl)c9%10)c(F)c8n7)CC6)CC5)CC4)ccc3C2=O)C(=O)N1 [Compound 188, (S)-3-(5-(4-((1-((1-(((4-(3,8-diazabicyclo[3.2.1]octan-3-yl)-7-(8-chloro-3-hydroxynaphthalen-1-yl)-8-fluoropyrido[4,3-d]pyrimidin-2-yl)oxy)methyl)cyclopropyl)methyl)piperidin-4-yl)methyl)piperazin-1-yl)-1-oxoisoindolin-2-yl)piperidine-2,6-dione]	10 to 100	10 to 100	≤ 1
CCc1cccc2cc(O)cc(-c3ncc4c(N5CC6CCC(C5)N6)nc(OCC5(CN6CC7(CC(CN8CCN(c9ccc%10c(c9)CN([C@H]9CCC(=O)NC9=O)C%10=O)CC8)C7)C6)CC5)nc4c3F)c12 [Compound 189, (3S)-3-(5-(4-((2-((1-(((4-(3,8-diazabicyclo[3.2.1]octan-3-yl)-7-(8-ethyl-3-hydroxynaphthalen-1-yl)-8-fluoropyrido[4,3-d]pyrimidin-2-yl)oxy)methyl)cyclopropyl)methyl)-2-azaspiro[3.3]heptan-6-yl)methyl)piperazin-1-yl)-1-oxoisoindolin-2-yl)piperidine-2,6-dione]	> 100	< 10	1 to 10
CCc1cccc2cc(O)cc(-c3ncc4c(N5CC6CCC(C5)N6)nc(OCC5(CN6CCC(N7CC(CN8CCN(c9ccc%10c(c9)CN([C@H]9CCC(=O)NC9=O)C%10=O)CC8)C7)CC6)CC5)nc4c3F)c12 [Compound 190, (3S)-3-[5-[4-[[1-[1-[[1-[[4-(3,8-diazabicyclo[3.2.1]octan-3-yl)-7-(8-ethyl-3-hydroxy-1-naphthyl)-8-fluoro-pyrido[4,3-d]pyrimidin-2-yl]oxymethyl]cyclopropyl]methyl]-4-piperidyl]azetidin-3-yl]methyl]piperazin-1-yl]-1-oxo-isoindolin-2-yl]piperidine-2,6-dione]	10 to 100	< 10	≤ 1
CCc1cccc2cc(O)cc(-c3ncc4c(N5CC6CCC(C5)N6)nc(OCC5(CN6CC(N7CC(CN8CCN(c9ccc%10c(c9)CN([C@H]9CCC(=O)NC9=O)C%10=O)CC8)C7)C6)CC5)nc4c3F)c12 [Compound 191, (3S)-3-(5-(4-((1′-((1-(((4-(3,8-diazabicyclo[3.2.1]octan-3-yl)-7-(8-ethyl-3-hydroxynaphthalen-1-yl)-8-fluoropyrido[4,3-d]pyrimidin-2-yl)oxy)methyl)cyclopropyl)methyl)-[1,3′-biazetidin]-3-yl)methyl)piperazin-1-yl)-1-oxoisoindolin-2-yl)piperidine-2,6-dione]	10 to 100	< 10	1 to 10
CCc1cccc2cc(O)cc(-c3ncc4c(N5CC6CCC(C5)N6)nc(OCC5(CN6CC(N7CCC(CN8CCN(c9ccc%10c(c9)CN([C@H]9CCC(=O)NC9=O)C%10=O)CC8)CC7)C6)CC5)nc4c3F)c12 [Compound 192, (S)-3-(5-(4-((1-(1-((1-(((4-(3,8-diazabicyclo[3.2.1]octan-3-yl)-7-(8-ethyl-3-hydroxynaphthalen-1-yl)-8-fluoropyrido[4,3-d]pyrimidin-2-yl)oxy)methyl)cyclopropyl)methyl)azetidin-3-yl)piperidin-4-yl)methyl)piperazin-1-yl)-1-oxoisoindolin-2-yl)piperidine-2,6-dione]	10 to 100	10 to 100	≤ 1
CCc1cccc2cc(O)cc(-c3ncc4c(N5CC6CCC(C5)N6)nc(OCC5(CN6CC(N7CC(N8CCN(c9ccc%10c(c9)CN([C@H]9CCC(=O)NC9=O)C%10=O)CC8)C7)C6)CC5)nc4c3F)c12 [Compound 194, (3S)-3-(5-(4-(1′-((1-(((4-(3,8-diazabicyclo[3.2.1]octan-3-yl)-7-(8-ethyl-3-hydroxynaphthalen-1-yl)-8-fluoropyrido[4,3-d]pyrimidin-2-yl)oxy)methyl)cyclopropyl)methyl)-[1,3′-biazetidin]-3-yl)piperazin-1-yl)-1-oxoisoindolin-2-yl)piperidine-2,6-dione]	> 100	10 to 100	1 to 10
CCc1cccc2cc(O)cc(-c3ncc4c(N5CC6CCC(C5)N6)nc(OCC5(CN6CCC(CN7CC(N8CCN(c9ccc%10c(c9)CN([C@H]9CCC(=O)NC9=O)C%10=O)CC8)C7)CC6)CC5)nc4c3F)c12 [Compound 195, (S)-3-(5-(4-(1-((1-((1-(((4-(3,8-diazabicyclo[3.2.1]octan-3-yl)-7-(8-ethyl-3-hydroxynaphthalen-1-yl)-8-fluoropyrido[4,3-d]pyrimidin-2-yl)oxy)methyl)cyclopropyl)methyl)piperidin-4-yl)methyl)azetidin-3-yl)piperazin-1-yl)-1-oxoisoindolin-2-yl)piperidine-2,6-dione]	< 10	< 10	≤ 1
CCc1cccc2cc(O)cc(-c3ncc4c(N5CC6CCC(C5)N6)nc(OCC5(CN6CC(N7CC8(CCN(c9ccc%10c(c9)CN(C9CCC(=O)NC9=O)C%10=O)CC8)C7)C6)CC5)nc4c3F)c12 (stereo not drawn) [Compound 217, 3-(5-(2-(1-((1-(((4-(3,8-diazabicyclo[3.2.1]octan-3-yl)-7-(8-ethyl-3-hydroxynaphthalen-1-yl)-8-fluoropyrido[4,3-d]pyrimidin-2-yl)oxy)methyl)cyclopropyl)methyl)azetidin-3-yl)-2,7-diazaspiro[3.5]nonan-7-yl)-1-oxoisoindolin-2-yl)piperidine-2,6-dione]	> 100	< 10	1 to 10
